Counter-ions that a name gives are not always drawn. Like-named read-outs stand apart in the source and are kept apart here.
Legend:
[1] = system: hypertensive ouabain-sensitive rats (os rats); assay: Systolic blood pressure fall in hypertensive ouabain-sensitive rats (OS rats); type: in vivo, rat; conditions: 10 μg/kg/day by mouth for four weeks; for HR / SBP: measured 6 hours after the treatment; for SBP: tail-cuff
Experimental: The ability of these compounds to lower blood pressure was tested by using an animal model with induced hypertension, in particular, rats made hypertensive by chronic infusion of ouabain, according to Ferrari P., et al. J. Pharm. Exp. Ther. 1998, 285, 83-94.
The procedure adopted to test the antihypertensive activity of the compounds on the above mentioned model was the following: systolic blood pressure (SBP) and heart rate (HR) were measured by an indirect tail-cuff method. The blood pressure lowering effect was measured in hypertensive ouabain-sensitive rats. The compound, suspended in Methocel 0.5% (w/v), was administered daily at the dose of 10 μg/kg/day by mouth for four weeks. SBP and HR were measured weekly 6 hours after the treatment. The comparison are ouabain sensitive rats (OS rats) and non hypertensive rats (control), both treated only with Methocel 0.5% (w/v). As shown in the following Table 4, treatment with a compound of the present invention lowers the blood pressure of OS rats (170 mm Hg) to almost the level of control rats (150 mm Hg).

Na+, K+-ATPase = Na+, K+-ATPase (Canis lupus familiaris, UniProt P50997); assay: biochemical; design: species or system dog; conditions: read-out: Na+, K+-ATPase Inhibition IC50
fresh rat hepatocytes = assay: Metabolism in fresh rat hepatocytes; conditions: fresh rat hepatocytes; test item nominal concentration 45 μM

## COC1CC2CC(=NOCCN)CCC2(C)C2CCC3(C)C(=O)CCC3C12 (mixture of isomers) [I-ee, (E,Z) 3-(2-Aminoethoxyimino)-7α-methoxyandrostane-17-one hemifumarate]
[1]
  HR % beats/min: +5.1%
  SBP - % (fall vs OS rats): 11.0%
  SBP - mm Hg (fall vs OS rats): 19.0 mm Hg
  HR: 381 beats/min.
  SBP: 151.0 mm Hg
Na+, K+-ATPase
  IC50: 14 µM
Fresh rat hepatocytes
  % of compound metabolized after 60 minutes: 22%

## CON=C1CC2CC(=NOCCN)CCC2(C)C2CCC3(C)C(=O)CCC3C12 (mixture of isomers) [I-bt, (E,Z)-3-(2-Aminoethoxyimino)-7-(E)-methoxyiminoandrostan-17-one fumarate]
[1]
  HR % beats/min: 0%
  SBP - % (fall vs OS rats): 8.3%
  SBP - mm Hg (fall vs OS rats): 14.2 mm Hg
  HR: 368 beats/min.
  SBP: 155.8 mm Hg
Na+, K+-ATPase; dog kidney enzyme
  IC50: 12 µM

Reference: US8609644B2, “Amino derivatives of androstanes and androstenes as medicaments for cardiovascular disorders” (priority 2006, dated 2013)
